In patent US20050037450A1, “Novel targets for lithium therapy” (Duke University, priority 2002, published 2005):
Where “and” joins values, the source holds several entries; their conditions need not be identical. Identical values can stand only once.

Key:
BPntase = conditions: cited from earlier work
[1] = molecular target: T1, GST-PST (mouse phenol-preferring sulfotransferase fused to GST) (Mus musculus, UniProt P52840); experiment: Binding of radiolabeled PAP to GST-PST (Scatchard); conditions: 100 nM purified GST-PST; Scatchard plot
T1 construct: The PST open reading frame was subcloned into the BamHI and NotI sites of pGEX4T-1; made in house; host or cells: bacteria (pGEX4T-1)
Experimental: FIG. 8 is a graph showing binding of PAP to GST-PST. Binding of radiolabeled PAP to 100 nM purified GST-PST was assayed in the presence of various concentrations of unlabeled PAP. […] The data are linear and intersect the y-axis at [Sb]/[Sf]=2.8.
Measurement of intracellular PAP concentrations. A novel isotope binding competition assay was developed to measure intracellular concentrations of PAP. The concentration of PAP in lysates was determined by the binding of radiolabeled PAP to the enzyme phenol (aryl) sulfotransferase (PST), which uses PAP as a cofactor (Yang, 1996b). […] The open reading frame was amplified by PCR using the primers 5′ […] (SEQ ID NO: 15) and 5′ […] (SEQ ID NO: 16) where the underlined sequences correspond to sequence in the PST open reading frame. The PCR product was gel purified and ligated into the pCR2.1 vector. […] The PST open reading frame was subcloned into the BamHI and NotI sites of pGEX4T-1 to create a bacterial expression vector in which PST was expressed in frame downstream of GST (GST-PST). […]
For the assay of intracellular PAP concentrations, appropriate yeast strains were grown in CM/ura^− to mid-log phase (OD600=1.0). […] The amount of soluble protein in this extract was determined using a Bradford dye-binding assay (BioRad, Hercules, Calif., United States of America) with bovine serum albumin as a standard. […]

adenylate cyclase = conditions: preparations of native adenylate cyclase-containing membranes; P-site inhibitor; read-out: IC50 for inhibition of adenylate cyclase; cited from earlier work
cultured IMCD cells = experiment: cAMP production during stimulation of cultured IMCD cells; format: cell-based, mouse; conditions: lithium present
[2] = tested on: intracellular PAP in met14Δ cells; format: cell-based, S. cerevisiae
Experimental: (§1) Yeast were grown in CM/ura^− containing 2% galactose to mid-log phase. The cultures were washed extensively and resuspended in the CM/ura^−/met^− media with the noted inclusions. PAP was measured using the ligand binding assay described in Experimental Procedures. Intracellular PAP concentrations were normalized to the amount of soluble protein extracted from the cultures.
(§2) For the assay of intracellular PAP concentrations, appropriate yeast strains were grown in CM/ura^− to mid-log phase (OD600=1.0). The cells were centrifuged and washed extensively in sterile water. The cells were resuspended in CM/ura^−/met^− containing methionine (20 μg/ml), lithium, or chlorate as appropriate. The cultures were incubated with shaking at 30° C. At various time points, 2 ml of culture was removed and centrifuged. The cells were washed with 1 ml of water. 250 μl was centrifuged and resuspended in 200 μl K-lysis buffer. 200 μl of glass beads were added, and the cells were disrupted by vigorous bead beating. The amount of soluble protein in this extract was determined using a Bradford dye-binding assay (BioRad, Hercules, Calif., United States of America) with bovine serum albumin as a standard. The remaining 750 μl of washed cells was spun down and resuspended in 250 μl of 2 N HClO4. This was incubated at 4° C. for 20 min, when 250 μl of 1.8 N KOH, 0.4 N KHCO3 were added to neutralize and precipitate the HClO4. The extract was centrifuged at 4° C. to remove the debris, and the supernatant was lyophilized using a rotary evaporator. The dried extracts were frozen at −80° C. for no more than one week prior to use. Extracts were reconstituted in 100 μL of 200 mM HEPES, pH 7.5 and again centrifuged to remove debris. 5′ [^32P] 3′, 5′ PAP was created as described (Spiegelberg, 1999). The GST-PST assay was performed by mixing 10 μL of standard PAP, treated as above, or 10 μL of sample diluted approximately 1:1000 in K-lysis buffer, with 10 μL of radiolabeled PAP (approximately 10,000 CPM). Eighty microliters of a reaction mix containing 100 mM HEPES, pH 7.0, 5 mM DTT, 0.2 mg/ml BSA, and 1 μg of GST-PST were added to start the binding reaction. The reactions were allowed to equilibrate for at least one hour at room temperature. Following incubation, 20 μl of a 50:50 slurry of glutathione sepharose in K-lysis buffer was added. The tubes were incubated with gentle mixing for 10 min at room temperature. The protein with bound PAP was pulled down by centrifugation for 2 min at room temperature. 80 μl of the supernatant, containing free PAP, was removed to a scintillation vial and 200 μl of K-lysis buffer was added to wash the resin. The tubes were centrifuged again and the 200 μl wash was transferred to the original scintillation vials. Radioactivity was determined by adding 5 ml of […] ECONO2™ scintillation fluid (Fisher Scientific, Hampton, N.H., United States of America) and counted in a liquid scintillation counter. The counts were converted to percent isotope bound, and a standard curve was prepared by plotting percent bound vs. the logarithm of the PAP concentration. This standard curve was used to back-calculate the PAP concentration in the unknown samples.
(§3) The GST-PST binding assay was used to determine relative intracellular PAP concentrations in yeast strains grown under various conditions. The PAP concentration determined in the binding assay was normalized to the total soluble protein in parallel extracts, and background was eliminated by reporting only the signal that was sensitive to in vitro degradation by purified recombinant Hal2p. The assay was characterized further by analyzing the intracellular PAP concentration of wild type yeast grown in the presence of lithium.

[3] = tested on: intracellular PAP in met3Δ cells; format: cell-based, S. cerevisiae
Experimental: as §1, §2, §3

[4] = tested on: intracellular PAP in wild type yeast; experiment: Intracellular PAP concentration by GST-PST binding assay, wild type yeast; format: cell-based, S. cerevisiae
Experimental: as §1
as §2, with “This standard curve was used to back-calculate the PAP concentration in the unknown samples.” left out
as §3, with “The assay was characterized further by analyzing the intracellular PAP concentration of wild type yeast grown in the presence of lithium.” left out

Wild type yeast = experiment: Lithium inhibition of yeast growth (OD600), wild type; format: cell-based, S. cerevisiae; conditions: CM/ura−/met−, 24 hr at 30° C.
Experimental: FIG. 7 is a graph showing met3Δ and met14Δ strains are lithium resistant. Wild type, met3Δ, and met14Δ yeast were resuspended at 5×10^4/ml in CM/ura^− containing 2% dextrose and 1.25 μg/ml methionine. Growth at various concentrations of LiCl was measured after a 24 hr incubation at 30° C. The growth is plotted relative to growth in media lacking lithium.
FIG. 10 is a graph showing methionine supplementation induces lithium resistance. Wild type yeast were inoculated at 5×10^4 cells per ml into synthetic media with or without methionine containing the noted concentration of LiCl. Growth was assayed by spectrophotometry following 48 hrs of growth at 30° C.
Wild type yeast were grown in CM/ura^− containing 2% galactose to mid-log phase. The cultures were washed and resuspended at 5×10^5 cells/ml in CM/ura^−/met^− containing the noted lithium and chlorate concentrations. Following growth for 24 hr at 30° C., the cultures were resuspended, and growth was measured by determining the absorbance at λ=600 nm.
Since methionine effects transcriptional down regulation of the MET3 and MET14 gene products in wild type yeast, the relative lithium sensitivities of the met3Δ and met14Δ strains were assayed in growth media containing reduced methionine (1.25 μg/ml). The use of limited methionine allowed for the comparison of the relative sensitivity to lithium of yeast expressing (wild type) or lacking (met3Δ and met14Δ) PAPS synthetase activities.
The yeast system was used to determine if chlorate could be used to effect a relevant decrease in the accumulation of PAP in the presence of lithium. […] The decrease in PAP accumulation was physiologically relevant since chlorate produced a protective effect in the presence of lithium. […] When 25 mM NaClO3 is included in the culture medium, the growth inhibition is abated, with the IC50 increasing to approximately 80 mM LiCl (FIG. 11)

T1 sequence (P52840 whole entry, the tested form may be a part): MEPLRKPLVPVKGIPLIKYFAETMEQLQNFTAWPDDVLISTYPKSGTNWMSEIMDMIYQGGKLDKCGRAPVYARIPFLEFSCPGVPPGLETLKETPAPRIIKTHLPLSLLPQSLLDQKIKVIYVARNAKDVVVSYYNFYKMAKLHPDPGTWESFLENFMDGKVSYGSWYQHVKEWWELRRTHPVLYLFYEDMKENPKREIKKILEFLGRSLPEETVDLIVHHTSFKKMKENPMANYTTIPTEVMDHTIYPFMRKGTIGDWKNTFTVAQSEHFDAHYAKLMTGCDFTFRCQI

Nc1ncnc2c1ncn2[C@@H]1O[C@H](COP(=O)(O)OS(=O)(=O)O)[C@@H](OP(=O)(O)O)[C@H]1O [3′-phosphoadenosine 5′-phosphosulfate]
Vmax of BPntase substrate (BPntase; removal of 3′-phosphate): 40 µmol/min/mg | Km (BPntase; removal of 3′-phosphate, read-out: Km of BPntase substrate): 0.5 µM

Nc1ncnc2c1ncn2[C@@H]1O[C@H](COP(=O)(O)O)[C@@H](OP(=O)(O)O)[C@H]1O [PAP, 3′-phosphoadenosine 5′-phosphate]
Kd [1]: ~0.035 µM and 0.0357 µM | IC50 (adenylate cyclase): ~50 µM

[O-][Cl+2]([O-])O [chlorate]
Effect of chlorate on accumulation of cAMP (cultured IMCD cells): partially restored | Fold PAP accumulation with chlorate ([2]; met14Δ expressing hPAPSS2, 100 mM lithium plus 25 mM NaClO3): 22.1 fold | Fold PAP accumulation with chlorate ([3]; met3Δ expressing hPAPSS2, 100 mM lithium plus 25 mM NaClO3): 27.0 fold | Fold PAP accumulation with chlorate ([4]; wild type, 100 mM lithium plus 25 mM NaClO3): 30.8 fold | Effect of chlorate on lithium-dependent PAP accumulation / production ([4]; yeast, lithium present): inhibited production of PAP in vivo | Effect of chlorate on sensitivity of yeast growth to lithium (Wild type yeast): reduces sensitivity

O=P(O)(O)O[C@H]1[C@H](O)[C@@H](O)[C@H](OP(=O)(O)O)[C@@H](O)[C@H]1O [inositol 1,4-bisphosphate]
Ki (BPntase; read-out: Ki, competitive inhibition of BPntase): 15 µM

CSCC[C@H](N)C(=O)O [methionine]
Effect of methionine on PAP accumulation ([2]; met14Δ expressing hPAPSS2 from galactose-inducible vector, lithium present): little effect | Effect of methionine on PAP accumulation ([3]; met3Δ expressing hPAPSS2 from galactose-inducible vector, lithium present): little effect | Intracellular PAP concentration with methionine ([4]; wild type, lithium present, methionine 20 μg/ml in media): 2.3 nmol/mg
